# {P} = phosphate
# What was measured:
# [1] = test system: 3T3-L1 preadipocytes; assay: Cellular triglyceride content during maturation of 3T3-L1 preadipocytes into adipocytes; format: cell-based, mouse; conditions: silencing in preadipocytes at D0; after 4 days of differentiation, p<0.05
# Description: (§1) 3T3-L1 adipocytes. The 3T3-L1 preadipocytes (ATCC) were maintained in Dulbecco's modified Eagle medium (DMEM) supplemented with 10% calf serum and 2 mM glutamine. Differentiation of confluent preadipocytes was initiated with 250 nM insulin, 1250 nM dexamethasone and 250 μM 3-isobutyl-methyl-1-xanthine) in DMEM (4.5 g/L glucose) supplemented with 10% FBS. After 3 days, the culture medium was switched to DMEM (4.5 g/L glucose) supplemented with 10% FBS and 100 nM Insulin for 2 days. Then, 3T3-adipocytes were allowed to mature in DMEM (4.5 g/L glucose) containing 10% FBS, which was replaced every other day for 15 days.
# (§2) Quantification of total cellular triglyceride and cholesterol mass was performed as previously described (Milosavljevic et al., 2003).
# (§3) Ten-day differentiated HMDM were grown in 24-well plates and transfected with 50 nM control siRNA (Dharmacon) or siRNA targeting human ABCG1 using lipofectamine RNAiMax (Invitrogen) according to the manufacturer's instructions. Transfection of 3T3-L1 preadipocytes and mature adipocytes with siRNA was achieved using the Nucleofector® technology (Lonza) according to the manufacturer's protocol. For each experiment, 2×10^6 cells and 100 pmol siRNA were diluted in 100 μl of V solution and processed with A-033 program.
# [2] = test system: LPL; assay: Secreted LPL activity in culture media of 3T3-L1 adipocytes; format: cell-based, mouse; conditions: ABCG1 KD 3T3-L1 adipocytes, p<0.05
# Description: as §1
# (§4) Cell culture medium from either macrophage or adipocyte cultures was replaced by a serum-free medium containing 10 U/mL heparin (Choay) and the cells were subsequently incubated for 24 h at 37° C. Culture medium was then collected and stored at −80° C. until determination of LPL activity and cells were lysed overnight in 0.2 N NaOH. Cell protein was quantified using the BCA assay (Pierce). LPL activity was determined using a 50-μl aliquot of culture medium ( 1/10 of total volume), or plasma when indicated, according to the procedure previously described (Stengel et al., 1998). Results are expressed as units of LPL activity (1 U of LPL activity correspond to 1 nmol free fatty acid liberated/min/mg cell protein). […]
# [3] = test system: ABCG1; assay: ABCG1 knockdown efficiency (mRNA) in 3T3-L1 adipocytes; format: cell-based, mouse; conditions: mature 3T3-L1 adipocytes, p<0.0005
# Description: as §1, with “15 days. […]” for “15 days.”
# (§5) Twenty-four hours following transfection with siRNA, Control and ABCG1 KD cells were washed twice with cold PBS and total RNA was extracted using a NucleoSpin RNA II kit (Macherey-Nagel) according to the manufacturer's instructions. Reverse transcription of RNA and real time quantitative PCR using a LightCycler LC480 (Roche) were performed as previously described (Larrede et al., 2009). Expression data were based on the crossing points calculated with the software for LightCycler data analysis and corrected for PCR efficiencies of the target and the reference gene. When indicated, data were expressed as a fold change in mRNA expression relative to control values.
# [4] = test system: LPL; assay: Confocal microscopy of LPL at the cell surface of HMDM; format: cell-based, human; conditions: ABCG1 KD HMDM vs control
# Description: Cells were blocked for 60 minutes with 3% BSA in PBS and then incubated with an anti-hLPL antibody (Abcam; 1:300) overnight at 4° C. After washing, a biotinylated goat anti-mouse IgG secondary antibody (1:1000; BD Pharmingen) was added, followed by the addition of streptavidin-horseradish peroxidase. The signal was enhanced using the tyramide signal amplification (TSA) kit (PerkinElmer) according to the manufacturer's protocol; cells were counterstained for nuclei with DAPI (Invitrogen). Confocal microscopy was performed using a Right confocal microscope Olympus FV-1000 with a 60× objective.
# [5] = test system: LPL; assay: Secreted LPL activity in culture media of HMDM after heparin; format: cell-based, human; conditions: ABCG1 KD HMDM, after heparin treatment, p=0.02
# Description: (§6) Human Macrophages. Human THP-1 monocytic cells (ATCC) and a THP-1 clone stably transfected with an shRNA targeting human ABCG1, in which ABCG1 expression is stably knocked down (ABCG1 SKD), were cultured and differentiated into macrophage-like cells as previously described (Larrede et al., 2009). Circulating human monocytes were isolated from the blood of individual healthy normolipidemic donors (Etablissement Français du Sang, EFS) on Ficoll gradients (Ficoll-Paque PLUS, GE Healthcare) and subsequently differentiated into human macrophages (HMDM) following the procedure previously reported (Larrede et al., 2009).
# as §4
# [6] = test system: SDC1, SDC2, VLDL-r, LRP, apoE, LDL-r; assay: Relative mRNA levels of proteoglycan core proteins, lipoprotein receptors and apoE in HMDM; format: cell-based, human
# Description: as §3, §5
# [7] = test system: human monocyte-derived macrophages (HMDM); assay: VLDL-induced cellular triglyceride and cholesterol accumulation in HMDM; format: cell-based; conditions: 50 μg/mL VLDL, 24 h
# Description: as §2, §3
# [8] = test system: LPL; assay: Flow cytometry of cell surface LPL in THP-1 macrophages; format: cell-based, human; conditions: ABCG1 KD THP-1 macrophages, p<0.05
# Description: as §6
# Human THP-1 macrophages were cultured in 12-well plates (2.106 cells/well) and incubated in serum-free media in the presence or in the absence of 10 U/mL heparin (Choay) for 24 h at 37° C. following siRNA transfection. Cells were then washed and harvested in cold PBS. After brief centrifugation (2000 rpm, […]) at 4° C., cells were pre-incubated with 100 μl of human Fc Blocker (BD Pharmingen; 1:400 in PBS/BSA 1%) for 10 min at 4° C., and incubated with a monoclonal mouse antibody directed against human LPL (abcam; 1:100) for a further 15 min at 4° C. […] Cells were analyzed on an FC 500 flow cytometer (Beckman Coulter) using Epics XL32 software.
# [9] = test system: LPL mRNA; assay: LPL mRNA levels by real-time quantitative PCR in HMDM; format: cell-based, human; conditions: ABCG1 KD HMDM, p<0.05
# Description: as §3, §5
# [10] = test system: human ABCG1; assay: siRNA silencing of ABCG1 in HMDM, Western blot of total ABCG1 protein; format: cell-based; conditions: HMDM transfected with 50 nM siRNA vs control siRNA
# Description: as §6
# Silencing of ABCG1 expression was performed by application of siRNA oligonucleotides (Dharmacon) targeted to the cDNA sequence of either the human ABCG1 gene (Genebank #AY048757):
# Ten-day differentiated HMDM were grown in 24-well plates and transfected with 50 nM control siRNA (Dharmacon) or siRNA targeting human ABCG1 using lipofectamine RNAiMax (Invitrogen) according to the manufacturer's instructions. […]
# Cell proteins were extracted using 200 μL M-PER reagent (Pierce) containing protease inhibitors and were subsequently separated on a 4-12% Bis-Tris gel (Invitrogen). […] ABCG1 was detected using rabbit anti-hABCG1 (NB400-132; Novus) at 1:500 and goat anti-rabbit/HRP (Dako) at 1:15000.
molecule,measurement,setting,value
"5′-GCGAAGCUGUACCUGGAUU-UU / 5′-P-AAUCCAGGUACAGCUUCGC-UU-3′ (sense GCGAAGCUGUACCUGGAUUUU; antisense AAUCCAGGUACAGCUUCGCUU; siRNA; sense: RNA, backbone not given here; antisense: RNA, 5' {P}, backbone not given here) [siRNA targeting mouse Abcg1]","intracellular TG accumulation during adipocyte maturation, change vs control cells",[1],−22%
same,"LPL activity in media, change vs control cells",[2],−81%
same,"inhibition of ABCG1 (mRNA), change vs control",[3],−77%
"5′-UCAUUGGCCUGCUGUACUU-UU-3 / 5′-P-AAGUACAGCAGGCCAAUGA-UU-3′ (sense UCAUUGGCCUGCUGUACUUUU; antisense AAGUACAGCAGGCCAAUGAUU; siRNA; sense: RNA, backbone not given here; antisense: RNA, 5' {P}, backbone not given here) [siRNA specific for the human ABCG1 gene]",abundance of LPL detected at the cell surface after heparin treatment,[4]; 10 U/mL heparin,still remained higher than that in control HMDM
same,LPL expression at the cell surface (confocal microscopy),[4]; without heparin,much more pronounced than in control cells
same,"secreted LPL activity, change vs control HMDM",[5],−52%
same,"relative mRNA levels of SDC1, SDC2, VLDL-r, LRP and apoE",[6]; ABCG1 KD human macrophages vs control,not altered
same,"LDL-receptor (LDL-r) expression, induction vs control cells","[6]; ABCG1 KD macrophages, p<0.01",2 fold
same,VLDL-induced accumulation of cholesterol,[7]; ABCG1 KD HMDM,completely abolished
same,"VLDL-induced accumulation of TG, change vs control cells","[7]; ABCG1 KD HMDM, p<0.01",−38%
same,"expression of LPL at the cell surface (flow cytometry), change vs control cells",[8],+48%
same,"LPL expression (mRNA), change vs control HMDM",[9],+28%
same,"ABCG1 expression (total ABCG1 protein, Western blot)",[10],almost complete abolition
"CCCCCCCCCCC[C@@H](C[C@@H]1OC(=O)[C@H]1CCCCCC)OC(=O)[C@H](CC(C)C)NC=O [THL, Tetrahydrolipstatin, reference compound]","TC accumulation induced by VLDL, change","[7]; control HMDM, 10 μM THL",−75%
same,"TG accumulation induced by VLDL, change","[7]; control HMDM, 10 μM THL",−43%

# From patent US20130289099A1, “ABCG1 GENE AS A MARKER AND A TARGET GENE FOR TREATING OBESITY” (UNIVERSITE PIERRE ET MARIE CURIE (PARIS 6), priority 2010, published 2013)
